Test results reported in PubChem BioAssay AID248 (DTP/NCI, 2004).
Several values for one entry are separate records, joined by “and”; a condition that tells them apart may be missing. Equal values may be shown once. Toxic doses and inconclusive results are not listed. Cut-off read from the data, not from the text of the source: active = T/C of 150% or more; inactive = T/C below 125%.

Test system: L1210 leukemia ip in BDF1 mice, survival T/C
Test: NCI In Vivo Anticancer Drug Screen. Data for tumor model L1210 Leukemia (intraperitoneal) in B6D2F1 (BDF1) mice
Settings: endpoint: mean survival time, higher = longer survival
Procedure, shortened: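 Tumor was transplanted into mice, which were then dosed with test compound or vehicle alone. Survival was recorded for each group, and the treated figure was expressed relative to the control figure.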

[1] = dose: 100.0 mg/kg/injection, schedule: Q01DX001 (ip), vehicle: saline
[2] = dose: 200.0 mg/kg/injection, schedule: Q01DX001 (ip), vehicle: saline
[3] = dose: 400.0 mg/kg/injection, schedule: Q01DX001 (ip), vehicle: saline
[4] = dose: 100.0 mg/kg/injection, schedule: Q04DX003 (ip), vehicle: Klucel (hydroxypropylcellulose) (HPC)
[5] = dose: 200.0 mg/kg/injection, schedule: Q04DX003 (ip), vehicle: Klucel (hydroxypropylcellulose) (HPC)
[6] = dose: 400.0 mg/kg/injection, schedule: Q04DX003 (ip), vehicle: Klucel (hydroxypropylcellulose) (HPC)
[7] = dose: 12.5 mg/kg/injection, schedule: Q01DX009 (ip), vehicle: saline with Tween-80
[8] = dose: 100.0 mg/kg/injection, schedule: Q01DX001 (ip), vehicle: saline with Tween-80
[9] = dose: 100.0 mg/kg/injection, schedule: Q04DX002 (ip), vehicle: saline with Tween-80
[10] = dose: 100.0 mg/kg/injection, schedule: Q04DX003 (ip), vehicle: saline with Tween-80
[11] = dose: 200.0 mg/kg/injection, schedule: Q04DX002 (ip), vehicle: saline with Tween-80
[12] = dose: 200.0 mg/kg/injection, schedule: Q04DX003 (ip), vehicle: saline with Tween-80
[13] = dose: 400.0 mg/kg/injection, schedule: Q01DX001 (ip), vehicle: saline with Tween-80
[14] = dose: 400.0 mg/kg/injection, schedule: Q04DX002 (ip), vehicle: saline with Tween-80
[15] = dose: 200.0 mg/kg/injection, schedule: Q01DX001 (ip), vehicle: saline with Tween-80
[16] = dose: 400.0 mg/kg/injection, schedule: Q04DX003 (ip), vehicle: saline with Tween-80

Measured: T/C

C=CC1C(OCC)(OCC)CS1(=O)=O (stereo unspecified)
inactive: [1] 93 % of control | dose: 100.0 mg/kg/injection, schedule: Q01DX009 (ip), vehicle: acetone 106 % of control | [2] 98 % of control | dose: 200.0 mg/kg/injection, schedule: Q01DX009 (ip), vehicle: acetone 100 % of control | [3] 95 % of control | dose: 400.0 mg/kg/injection, schedule: Q01DX009 (ip), vehicle: acetone 106 % of control

CCCCCCCCCCCCCCCCS(=O)(=O)c1ccc(S(=O)(=O)F)cc1NC(C)=O
inactive: [4] 91 % of control | dose: 200.0 mg/kg/injection, schedule: Q01DX009 (ip), vehicle: saline sonified 93 % of control | [5] 94 % of control | [6] 91 % of control

CCN(C(=O)NC(C)(C)C)c1cccc(C)c1
inactive: [7] 108 % of control | dose: 25.0 mg/kg/injection, schedule: Q01DX009 (ip), vehicle: saline with Tween-80 105 % of control and 106 % of control | [8] 122 % of control | [9] 101 % of control and 86 % of control | [10] 102 % of control | [11] 94 % of control and 97 % of control | [12] 105 % of control | [13] 103 % of control | [14] 101 % of control

C=C1C(=O)N2CCCC2C(=O)N1C (stereo unspecified)
inactive: dose: 75.0 mg/kg/injection, schedule: Q04DX002 (ip), vehicle: saline 94 % of control | dose: 150.0 mg/kg/injection, schedule: Q04DX002 (ip), vehicle: saline 97 % of control | dose: 300.0 mg/kg/injection, schedule: Q04DX002 (ip), vehicle: saline 87 % of control

CCN(CC)CCN(CCO)Cc1ccccc1
inactive: dose: 25.0 mg/kg/injection, schedule: Q04DX003 (ip), vehicle: Klucel (hydroxypropylcellulose) (HPC) 98 % of control | dose: 50.0 mg/kg/injection, schedule: Q01DX009 (ip), vehicle: Klucel (hydroxypropylcellulose) (HPC) 92 % of control | dose: 50.0 mg/kg/injection, schedule: Q04DX003 (ip), vehicle: Klucel (hydroxypropylcellulose) (HPC) 96 % of control | dose: 100.0 mg/kg/injection, schedule: Q01DX009 (ip), vehicle: Klucel (hydroxypropylcellulose) (HPC) 100 % of control | [4] 98 % of control and 101 % of control

[N-]=[N+]=Nc1ccc2cc3ccccc3nc2c1
inactive: dose: 100.0 mg/kg/injection, schedule: Q04DX003 (ip), vehicle: acetone 89 % of control | dose: 200.0 mg/kg/injection, schedule: Q04DX003 (ip), vehicle: acetone 95 % of control | dose: 400.0 mg/kg/injection, schedule: Q04DX003 (ip), vehicle: acetone 87 % of control

COc1cc(/C=N\NC(=S)Nc2ccc(S(=O)(=O)N3CCCCC3)cc2)cc(OC)c1OC
inactive: [9] 98 % of control | [11] 103 % of control | [14] 90 % of control

CCOCCNc1ccc(S(=O)(=O)c2ccc(N)cc2)cc1N
inactive: [1] 95 % of control | [2] 90 % of control | [3] 97 % of control

CC([CH2][Hg][Cl])c1ccccc1 (stereo unspecified)
inactive: dose: 3.13 mg/kg/injection, schedule: Q01DX009 (ip), vehicle: saline with Tween-80 95 % of control | dose: 6.25 mg/kg/injection, schedule: Q01DX009 (ip), vehicle: saline with Tween-80 92 % of control | dose: 6.25 mg/kg/injection, schedule: Q04DX003 (ip), vehicle: Klucel (hydroxypropylcellulose) (HPC) 101 % of control | [7] 90 % of control | dose: 12.5 mg/kg/injection, schedule: Q04DX003 (ip), vehicle: Klucel (hydroxypropylcellulose) (HPC) 119 % of control

COc1ccc(/C=N/NC(=O)CNC(=O)Nc2cccc(Cl)c2)cc1
inactive: dose: 50.0 mg/kg/injection, schedule: Q01DX009 (ip), vehicle: saline with Tween-80 87 % of control

CC(=O)OC1(C[N+](=O)[O-])CCCCC1
inactive: dose: 50.0 mg/kg/injection, schedule: Q01DX001 (ip), vehicle: saline with Tween-80 93 % of control | [8] 101 % of control | [15] 101 % of control

C/C=C/Sc1ccccc1C(=O)O
inactive: dose: 50.0 mg/kg/injection, schedule: Q01DX001 (ip), vehicle: carboxymethylcellulose (CMC) 104 % of control | dose: 100.0 mg/kg/injection, schedule: Q01DX001 (ip), vehicle: carboxymethylcellulose (CMC) 100 % of control | dose: 200.0 mg/kg/injection, schedule: Q01DX001 (ip), vehicle: carboxymethylcellulose (CMC) 104 % of control

O=C(NCCCl)Nc1ccc(O)cc1
inactive: dose: 100.0 mg/kg/injection, schedule: Q01DX009 (ip), vehicle: saline 101 % of control | [4] 98 % of control | dose: 200.0 mg/kg/injection, schedule: Q01DX009 (ip), vehicle: saline 105 % of control | [5] 94 % of control | dose: 400.0 mg/kg/injection, schedule: Q01DX009 (ip), vehicle: saline 90 % of control | [6] 100 % of control

CCCCOP(=O)(/C=C/c1ccc(NC(C)=O)cc1)OCCCC
inactive: dose: 100.0 mg/kg/injection, schedule: Q04DX002 (ip), vehicle: Klucel (hydroxypropylcellulose) (HPC) 104 % of control | dose: 200.0 mg/kg/injection, schedule: Q04DX002 (ip), vehicle: Klucel (hydroxypropylcellulose) (HPC) 96 % of control | dose: 400.0 mg/kg/injection, schedule: Q04DX002 (ip), vehicle: Klucel (hydroxypropylcellulose) (HPC) 89 % of control

CCCCSP(=O)(SCCCC)c1ccccc1
inactive: dose: 100.0 mg/kg/injection, schedule: Q01DX001 (ip), vehicle: Klucel (hydroxypropylcellulose) (HPC) 100 % of control | dose: 200.0 mg/kg/injection, schedule: Q01DX001 (ip), vehicle: Klucel (hydroxypropylcellulose) (HPC) 102 % of control | dose: 400.0 mg/kg/injection, schedule: Q01DX001 (ip), vehicle: Klucel (hydroxypropylcellulose) (HPC) 95 % of control

O=S1(=O)CC23CCC2(COC3)C1 (stereo unspecified)
inactive: dose: 12.5 mg/kg/injection, schedule: Q04DX003 (ip), vehicle: saline 97 % of control | dose: 25.0 mg/kg/injection, schedule: Q04DX003 (ip), vehicle: saline 94 % of control | dose: 50.0 mg/kg/injection, schedule: Q04DX003 (ip), vehicle: saline 92 % of control

COc1ccc(C2=CC(O)CC(c3ccccc3)C2c2ccccc2)cc1 (stereo unspecified)
inactive: [10] 105 % of control | [12] 103 % of control | [16] 91 % of control

C=CC[Se]CC=C
inactive: [4] 106 % of control | [5] 121 % of control

O=C1/C(=C/c2ccc([N+](=O)[O-])cc2)SC(=S)N1C1OC(CO)C(O)C(O)C1O (stereo unspecified)
inactive: dose: 25.0 mg/kg/injection, schedule: Q01DX005 (ip), vehicle: water 95 % of control | dose: 50.0 mg/kg/injection, schedule: Q01DX005 (ip), vehicle: water 95 % of control | dose: 100.0 mg/kg/injection, schedule: Q01DX005 (ip), vehicle: water 93 % of control

CCN(CC)CC(O)c1ccnc2c(N)cc(OC)cc12 (stereo unspecified)
inactive: dose: 75.0 mg/kg/injection, schedule: Q01DX001 (ip), vehicle: acetone 104 % of control | dose: 150.0 mg/kg/injection, schedule: Q01DX001 (ip), vehicle: acetone 101 % of control

CCN(CC)c1ccc(SSc2ccc(N(CC)CC)cc2)cc1
inactive: dose: 25.0 mg/kg/injection, schedule: Q01DX001 (ip), vehicle: saline 105 % of control | dose: 50.0 mg/kg/injection, schedule: Q01DX001 (ip), vehicle: saline 100 % of control | [1] 100 % of control

Cc1ncc(CO)c(Cc2ccc(N(C)C)cc2)c1O
inactive: dose: 100.0 mg/kg/injection, schedule: Q04DX002 (ip), vehicle: saline 88 % of control | dose: 200.0 mg/kg/injection, schedule: Q04DX002 (ip), vehicle: saline 103 % of control | dose: 400.0 mg/kg/injection, schedule: Q04DX002 (ip), vehicle: saline 95 % of control

CC(=O)N(c1ccc(NC(=O)c2ccc(N3C(=O)c4ccccc4C3=O)cc2[N+](=O)[O-])cc1)c1cc[n+](C)cc1
inactive: [8] 93 % of control and 90 % of control | [9] 101 % of control and 115 % of control | [15] 93 % of control and 108 % of control | [11] 101 % of control and 113 % of control | [13] 107 % of control and 90 % of control | [14] 96 % of control and 105 % of control

CCn1c(CC(O)(C(F)(F)F)C(F)(F)F)nc2ccccc21
inactive: [10] 101 % of control | [12] 98 % of control | [16] 101 % of control
